Earlier results as cited in article PMC4394704, “Structures and functions of insect arylalkylamine N-acetyltransferase (iaaNAT); a key enzyme for physiological and behavioral switch in arthropods” (Frontiers in Physiology, 2015).
Read-outs that look alike come from different tables or passages of the source.

Experiments:
bNAT (basic aaNAT, NATb) = tested on: T1, bNAT (basic aaNAT, NATb); assay: N-acetyltransferase activity of purified fraction; type: biochemical, Periplaneta americana; details: co-substrate acetyl CoA; pH not given
T1 construct: native, purified from midgut; 28 kDa by SDS-PAGE; pH optimum 9-10
Source text: N-acetyltransferase activity of purified fraction on bNAT (basic aaNAT, NATb)

[1] = tested on: T2, aNAT (acidic aaNAT, NATa); assay: N-acetyltransferase activity of purified fraction; type: biochemical, Periplaneta americana; details: co-substrate acetyl CoA; pH not given
T2 construct: native, purified from testicular accessory gland; 28 kDa by SDS-PAGE; pH optimum 5-6
Source text: N-acetyltransferase activity of purified fraction on aNAT (acidic aaNAT, NATa)

[2] = target: T3, apaaNAT (aaNAT from A. pernyi) (Antheraea pernyi, UniProt A2SZ52); assay: N-acetyltransferase activity assay, recombinant enzyme; type: biochemical; details: optimal pH 8.0 printed for the enzyme, read-out: apparent Km
T3 construct: cDNA expressed in Sf9 cells by baculovirus
T3 sequence (A2SZ52 1-261): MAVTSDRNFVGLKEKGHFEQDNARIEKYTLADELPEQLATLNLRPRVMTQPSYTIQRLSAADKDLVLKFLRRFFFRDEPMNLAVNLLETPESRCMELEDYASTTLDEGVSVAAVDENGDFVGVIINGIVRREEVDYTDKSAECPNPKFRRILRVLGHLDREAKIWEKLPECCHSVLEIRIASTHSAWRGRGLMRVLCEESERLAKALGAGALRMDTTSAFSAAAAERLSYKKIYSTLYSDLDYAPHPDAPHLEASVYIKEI

SMILES	Km (bNAT (basic aaNAT, NATb))	Km [1]	Km [2]	Km ([2]; substrate inhibition above 0.03 mM with 0.11 mM acetyl CoA)
NCCc1c[nH]c2ccc(O)cc12 [5HT]	325 µM	50 µM		
NCCc1ccc(O)c(O)c1 [Dopamine]	1520 µM	25 µM		
COc1ccc2[nH]cc(CCN)c2c1 [Methoxy-TN]	200 µM	25 µM		
NC[C@H](O)c1ccc(O)c(O)c1 [Norepinephrine]		28.6 µM		
NC[C@H](O)c1ccc(O)cc1 [Octopamine]	385 µM	20 µM		
NCCc1ccc(O)cc1 [Tyramine]	15.7 µM	28.6 µM		
CC(=O)SCCNC(=O)CCNC(=O)[C@H](O)C(C)(C)COP(=O)(O)OP(=O)(O)OC[C@H]1O[C@@H](n2cnc3c(N)ncnc32)[C@H](O)[C@@H]1OP(=O)(O)O [acetyl CoA]			1.42 µM	
NCCc1c[nH]c2ccccc12 [tryptamine]	1330 µM	25 µM		3.31 µM
